Experimental data as given in patent publication US20260226417A1, “METHOD FOR INHIBITING AGING OF STEM CELLS” (ENCELL CO., LTD, priority 2023, published 2026).

How the values were obtained:
Assay type in all cases: cell-based
[1] = test system: replicative senescence model of human umbilical cord-derived mesenchymal stem cells (P18); assay: β-galactosidase staining, extent of senescence, replicative senescence model (P18); design: dose or concentration left out as unconfirmed
Method: Compared to the control cells (P5) in which the extent of senescence was 0.21 % of the total, the extent of senescence in the senescence-induced mesenchymal stem cells (P18) was increased to 42.44% of the total, confirming the progression of replicative senescence (FIGs. 1a and 1b). Specifically, individual cells (5×10^4/well) were suspended in a 6-well plate and stabilized for 24 hours, followed by adding β-galactosidase staining solution and staining for 24 hours, after which the extent of senescence was measured under a microscope.
Therefore, it was confirmed that this concentration was an optimal concentration that inhibited the extent of senescence by inducing apoptosis specifically in the replicative senescence model (P18) without affecting the cytotoxicity of the control cells (P5).

[2] = test system: replicative senescence model of human umbilical cord-derived mesenchymal stem cells (P18); assay: Cell size measurement, replicative senescence model (P18); settings: 160 μM, 3 days
Method: Example 4. Validation of gut microbiota-derived metabolite candidate for senescence control Control cells (P5) and replicative senescence-induced human umbilical cord-derived mesenchymal stem cells (P18) were treated with nervonic acid (160 μM) to analyze the effects of the gut microbiota-derived metabolite having the ability to control senescence of stem cells on the proliferation of stem cells and cell size.
In addition, since cells have the characteristic of undergoing hypertrophy during the progression of cellular senescence, cell sizes were compared.

[3] = test system: human-derived mesenchymal stem cells, control cells (P5) subcultured to P10; assay: β-galactosidase staining during serial subculture P5 to P10 with treatment at each passage; settings: 160 μM for 24 hours at each passage
Method: Example 8. Confirmation Of anti-senescence efficacy by treating various human tissue-derived mesenchymal stem cells with nervonic acid Human-derived mesenchymal stem cells were treated with nervonic acid (160 μM) at each passage during cell culture from control cells (P5) to P10 to determine whether continuous treatment with nervonic acid during cell culture at early passage numbers was able to delay cellular senescence.
Specifically, from the day after human-derived mesenchymal stem cells were subcultured, treatment with 160 μM nervonic acid or an equivalent amount of DMSO (control) for 24 hours was performed, followed by replacement with the existing culture medium the next day. The above process was repeated to perform subculture up to P10 (passage 10). As such, B galactosidase staining for measuring cellular senescence was performed at P7, P8, P9, and P10, and cell doubling time and RNA extraction for qRT-PCR were both performed at P10. A more specific procedure therefor was carried out in the same manner as described above.

`CCCCCCCC/C=C\CCCCCCCCCCCCCC(=O)O` [nervonic acid] was tested, and the “extent of senescence (β-galactosidase staining), fold decrease compared to before treatment” value [1] was 0.41±0.04 fold, the “cell size, fold decrease compared to before treatment” value [2] was 0.47±0.03 fold and the “extent of senescence (β-galactosidase staining), fold compared to DMSO control at P10” value [3] was 0.40±0.07 fold.
